Laboratory results: patent US20220400669A1, “COMPOUNDS AND METHODS FOR PROMOTING PLANT GROWTH” (King Abdullah University of Science and Technology, priority 2019, published 2022)
“Also recorded” adds a separate entry of the source. Blank lines part the entries; values can stand above or below the molecule they belong to.

Legend:
Format in all cases: in vivo
Striga hermonthica seeds = experiment: Striga hermonthica seed germination bioassay with root exudates of treated rice seedlings; details: for decrease of Striga seed germination rate: exudates of rice seedlings treated with 5 μM compound, Pi starvation (FIG. 2)
Protocol: For SL analysis, one-week-old seedlings were transferred into 50 ml falcon tubes (two seedlings per tube), containing half-strength Hoagland nutrient solution with K2HPO4.2H2O (+Pi), and grown in the biochamber for one week. Rice seedlings were then subjected to phosphate deficiency (−Pi) for another one week. On the day of root exudates collection, rice seedlings were first treated with 5 μM Zaxinone, or MZ compounds for 6 h, and then root exudates and root tissues were collected from each tube for LC-MS/MS analysis and Striga bioassays. Striga hermonthica seed germination bioassays were conducted by following the procedure as described previously. About 50-100 sterilized Striga seeds were spread on a glass fiber filter paper disc. Then 12 discs with Striga seeds were put on a sterilized filter paper, moistened with 3 ml sterilized water in a 90 mm petri plate. The plates were sealed with parafilm and cover with aluminum foil. All the plates were kept at 30° C. for 10 days for pre-conditioning. On 11th day, six dry discs with pre-conditioned seeds were selected and put in a 90 mm petri-dish. A filter paper ring moistened with 0.9 ml sterile MilliQ water was placed in the plate. The root exudates collected from Zaxinone or MZ compounds treated rice seedlings was applied at 50 μl on each six disc. Sterile MilliQ water and standard SL analog GR24 (2.5 μM) were included as a negative and positive control, respectively. After application, Striga seeds were incubated in dark at 30° C. for 24 hours. Germination (seeds with radicle emerging through seed coat) was scored under a binocular microscope, and germination rate (%) was calculated.

Striga hermonthica = Striga hermonthica infection of rice in pots; details: 5 μM, rice cv IAC-165 in pots with Striga infested soil (FIG. 13)
Protocol: Pots experiment was conducted and slightly adapted from the protocol as described previously About 20 mg (ca 8000) Striga seeds were thoroughly mixed in 1.5 L sand and soil mixture (1:1) and added in 3 L perforated plastic pot containing 0.5 L clean soil in the bottom. The pots were kept in greenhouse-controlled conditions at 35° C. under moisture to preconditioned Striga seeds for 10 days. On 11th day, one week old five rice seedlings (cv IAC165) were planted in each pot. After three days of rice planting, each pot was first irrigated with 250 ml phosphorus deficient Hoaglands nutrient solution and after four hours of irrigation 25 ml formulated MZ3, MZ5 and Zaxinone (100 μM) were sprayed. Next day, each pot was again supplied with 250 ml nutrient solution to make the final concentration of each compound to 5 μM and to move the compound to rice seedlings. Pots with and without Striga seeds were kept as the negative and positive control. Each compound was applied twice in a week up to four weeks. The rice plants were grown under normal growth condition (30° C., 70% RH) for eight weeks. The number of emerged Striga plants in each pot were counted.

[1] = tested on: Gigaspora margarita spores; experiment: Gigaspora margarita spores germination
Protocol: Spores were sterilized in a solution of Streptomycine sulphate (0.03% W/V) and Chloramine T (3% W/V) and germinated in 200 μl of MZ3 and MZ5 at 5 μM or 50 nM, GR24 10 nM or a solution of Water/Acetone (12.5 μl acetone in 25 ml water). For each treatments 96 sterilized spores were placed individually in the wells of a multi-well plate and treated with freshly prepared solutions at the beginning of the experiment and after 3 days. Spores were germinated in the dark at 30° C. and the germination rate was evaluated after 3 days and 7 days.

[2] = tested on: strigolactones (4-deoxyorobanchol, orobanchol) release; experiment: LC-MS/MS quantification of SLs in rice root exudates; details: 5 μM; for SL level of the root exudate: wild-type rice seedlings, Pi-starvation, 6 h, compared with Zaxinone (FIGS. 19, 20A-20B); for SL level / release in root exudates (4-DO, Oro): Pi starvation, in comparison with MZ1 and mock control (FIGS. 21A-21C)
Protocol: For SL analysis, one-week-old seedlings were transferred into 50 ml falcon tubes (two seedlings per tube), containing half-strength Hoagland nutrient solution with K2HPO4.2H2O (+Pi), and grown in the biochamber for one week. Rice seedlings were then subjected to phosphate deficiency (−Pi) for another one week. On the day of root exudates collection, rice seedlings were first treated with 5 μM Zaxinone, or MZ compounds for 6 h, and then root exudates and root tissues were collected from each tube for LC-MS/MS analysis and Striga bioassays.
For the quantification of SLs in rice root exudates, 50 ml of root exudates spiked with 0.672 ng of D6-5-deoxystrigol, was brought on a 500 mg/3 ml fast SPE C18 column preconditioned with 6 ml of methanol and 3 ml of water. After washing with 3 ml of water, SLs were eluted with 5 ml of acetone. The 4-deoxyorobanchol fraction (acetone-water solution) was concentrated to SL aqueous solution (˜500 μl), followed by the extraction with 1 ml of ethyl acetate. 750 μl of SLs enriched organic phase was then transferred to 1.5 ml tube and evaporated to dryness under vacuum. The dried extract was dissolved in 100 μl of acetonitrile:water (25:75, v:v) and filtered through a 0.22 µm filter for LC-MS/MS analysis.

[3] = tested on: SL biosynthesis genes D27, CCD7, CCD8, CO; experiment: qRT-PCR transcript analysis of SL biosynthesis genes in rice roots; details: 5 μM; for transcript levels of SL biosynthesis enzymes D27, CCD7, CCD8 and CO: wild-type rice seedlings, Pi-starvation, 6 h
Protocol: For transcript analysis, one-week-old seedlings were grown hydroponically in half-strength modified Hoagland nutrient solution with K2HPO4.2H2O (+Pi) and without K2HPO4.2H2O (+Pi) (−Pi) for 7 days. Seedlings were further treated with zaxinone or MZ compounds for 6 h, and tissues were collected.
Roots of rice seedling were ground and homogenized in liquid nitrogen, and total RNA was isolated using a Direct-zol RNA Miniprep Plus Kit following the manufacturer's instructions (ZYMO RESEARCH; USA). cDNA was synthesized from 1 μg of total RNA using iScript cDNA Synthesis Kit (BIO-RAD Laboratories, Inc, 2000 Alfred Nobel Drive, Hercules, Calif.; USA) according to the instructions in the user manual. The gene expression level was detected by real-time quantitative RT-PCR (qRT-PCR) which was performed using SYBR Green Master Mix (Applied Biosystems; www.lifetechnologies.com) in a CFX384 Touch™ Real-Time PCR Detection System (BIO-RAD Laboratories, Inc, 2000 Alfred Nobel Drive, Hercules, Calif.; USA). The gene expression level was calculated by normalization of a housekeeping gene in rice, Ubiquitin (OsUBQ) (Table 1). The relative gene expression level was calculated according to 2-^ΔΔCT method.

[4] = LC-MS analysis of rice plants fed with the mimics; details: data not shown; for conversion into the methoxy mimic (MZ3 or MZ5) in rice plants: rice plants fed with the mimic
wild-type rice plants = experiment: Rice phenotypes in soil (rhizotron system); details: 5 μM
Protocol: For testing MZ3 and MZ5 on rice phenotypes in the rhizotron system (48 cm×24 cm×5 cm), three-day-old seedlings were grown in soil with half-strength modified Hoagland nutrient solution containing 0.4 mM K2HPO4.2H2O (+Pi) and 5 μM zaxinone for two weeks. The solution was changed every other day, adding the chemical at each renewal. To increase the compounds stability, 1 μl/ml emulsifier (cyclohexanone+Atlas […] kindly provided by a person […] of CRODA, Gouda; The Netherlands) was added into Hoagland nutrient solution. Root surface area was analyzed with the ImageJ software.

[5] = roots and root exudates, Pi-starved WT rice, 6 hours

Structure (SMILES): CC(=O)/C=C/C=C(C)/C=C/C1=C(C)CC(O)CC1(C)C (stereo in doubt) [Zaxinone, reference compound]
decrease of Striga seed germination rate (Striga hermonthica seeds): around 29%
reduction of the number of emerging Striga plants compared to the untreated control (Striga hermonthica): 42%
spores germination ([1]; Zaxinone, after 3 and 7 days): did not affect

Structure (SMILES): CC1=C[C@H](O/C=C2/C(=O)O[C@@H]3c4ccccc4C[C@H]23)OC1=O [GR24, reference compound]
spore germination rate ([1]; GR24 10 nM): highest

Structure (SMILES): CC(=O)/C=C/c1cccc(-c2ccc(O)cc2)c1 [MZ1]
SL level of the root exudate [2]: did not show significant activity

transcript levels of SL biosynthesis enzymes D27, CCD7, CCD8 and CO [3]: downregulating; also recorded: reduced
conversion into the methoxy mimic (MZ3 or MZ5) in rice plants [4]: not detected
Structure (SMILES): CC(=O)/C=C/c1cccc(Oc2ccc(O)cc2)c1 [MZ2, (E)-4-(3-(4-hydroxyphenoxy)phenyl)but-3-en-2-one]
SL level / release in root exudates (4-DO, Oro) [2]: significant decrease
SL level of the root exudate [2]: did not affect

transcript levels of SL biosynthesis enzymes D27, CCD7, CCD8 and CO [3]: downregulating; also recorded: reduced
conversion into the methoxy mimic (MZ3 or MZ5) in rice plants [4]: not detected
Structure (SMILES): CC(=O)c1cccc(-c2cccc(-c3ccc(O)cc3)c2)c1 [MZ4, 1-(4″-hydroxy-[1,1′:3′,1″-terphenyl]-3-yl)ethan-1-one]
effect on Striga seed germination (Striga hermonthica seeds; exudates of rice plants treated at 5 μM, Pi starvation): did not suppress
SL level / release in root exudates (4-DO, Oro) [2]: tendency to reduce
SL level of the root exudate [2]: did not affect

transcript levels of SL biosynthesis enzymes D27, CCD7, CCD8 and CO [3]: pronounced decrease
presence in shoots of rice plants fed through roots [4]: detected
Structure (SMILES): COc1ccc(-c2cccc(-c3cccc(C(C)=O)c3)c2)cc1 [MZ5]
decrease of Striga seed germination rate (Striga hermonthica seeds): ~46%
CCD7 and CO transcript level compared with Zaxinone ([3]; wild-type rice roots, Pi starvation, 6 h (FIGS. 12A-12D)): significantly lower
effect on 4-deoxyorobanchol relative to Zaxinone [2, 5]: significantly stronger
effect on SL levels relative to Zaxinone [2, 5]: reduced SL levels more than zaxinone
SL level of the root exudate [2]: obvious effect
root surface area and root numbers of WT plants compared with zaxinone treatment (wild-type rice plants): increased more
reduction of the number of emerging Striga plants compared to the untreated control (Striga hermonthica): 55%
spore germination rate ([1]; 5 μM and 50 nM, 3 and 7 days): no effect

Structure (SMILES): CC(=O)c1cccc(-c2cccc(-c3cccc(-c4cccc(-c5ccc(O)cc5)c4)c3)c2)c1 [MZ6]
SL level of the root exudate [2]: did not show significant activity

Structure (SMILES): CC(=O)c1cccc(-c2cccc(-c3cccc(-c4cccc(-c5cccc(-c6ccc(C)cc6)c5)c4)c3)c2)c1 [MZ7]
SL level of the root exudate [2]: did not show significant activity
